In assay [1] the target is T1, SMARCA2-HiBiT HeLa cells (protein which is expressed from the SMARCA2 gene) (Homo sapiens, UniProt P51531).
T1 construct: protein which is expressed from the SMARCA2 and SMARCA4 genes; host or cells: HeLa (SMARCA2-HiBiT engineered line)
In words: SMARCA2 degradation assay (HiBiT-fusion HeLa cell line, 24 h, luminescence). In kind it is cell-based. In outline: (§1)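 SMARCA2- or SMARCA4-HiBiT HeLa cells seeded overnight at 37° C, then given compound as a 10-point dilution (typically 10 μM to 300 pM) for 24 h at 37° C. Protein level read by HiBiT lytic detection luminescence; DC50 from dose-response curves; degradation also scored at 1 μM.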
A general note: The HiBiT peptide binds its large partner to form an active luciferase.

Assay [2] concerns the target T2, SMARCA4-HiBiT HeLa cells (protein which is expressed from the SMARCA4 gene) (Homo sapiens, UniProt P51532).
T2 construct: protein which is expressed from the SMARCA2 and SMARCA4 genes; host or cells: HeLa (SMARCA4-HiBiT engineered line)
Description: SMARCA4 degradation assay (HiBiT-fusion HeLa cell line, 24 h, luminescence). The format is cell-based. In outline:
as §1

SMILES strings stand for the structures.

T2 sequence (P51532 whole entry): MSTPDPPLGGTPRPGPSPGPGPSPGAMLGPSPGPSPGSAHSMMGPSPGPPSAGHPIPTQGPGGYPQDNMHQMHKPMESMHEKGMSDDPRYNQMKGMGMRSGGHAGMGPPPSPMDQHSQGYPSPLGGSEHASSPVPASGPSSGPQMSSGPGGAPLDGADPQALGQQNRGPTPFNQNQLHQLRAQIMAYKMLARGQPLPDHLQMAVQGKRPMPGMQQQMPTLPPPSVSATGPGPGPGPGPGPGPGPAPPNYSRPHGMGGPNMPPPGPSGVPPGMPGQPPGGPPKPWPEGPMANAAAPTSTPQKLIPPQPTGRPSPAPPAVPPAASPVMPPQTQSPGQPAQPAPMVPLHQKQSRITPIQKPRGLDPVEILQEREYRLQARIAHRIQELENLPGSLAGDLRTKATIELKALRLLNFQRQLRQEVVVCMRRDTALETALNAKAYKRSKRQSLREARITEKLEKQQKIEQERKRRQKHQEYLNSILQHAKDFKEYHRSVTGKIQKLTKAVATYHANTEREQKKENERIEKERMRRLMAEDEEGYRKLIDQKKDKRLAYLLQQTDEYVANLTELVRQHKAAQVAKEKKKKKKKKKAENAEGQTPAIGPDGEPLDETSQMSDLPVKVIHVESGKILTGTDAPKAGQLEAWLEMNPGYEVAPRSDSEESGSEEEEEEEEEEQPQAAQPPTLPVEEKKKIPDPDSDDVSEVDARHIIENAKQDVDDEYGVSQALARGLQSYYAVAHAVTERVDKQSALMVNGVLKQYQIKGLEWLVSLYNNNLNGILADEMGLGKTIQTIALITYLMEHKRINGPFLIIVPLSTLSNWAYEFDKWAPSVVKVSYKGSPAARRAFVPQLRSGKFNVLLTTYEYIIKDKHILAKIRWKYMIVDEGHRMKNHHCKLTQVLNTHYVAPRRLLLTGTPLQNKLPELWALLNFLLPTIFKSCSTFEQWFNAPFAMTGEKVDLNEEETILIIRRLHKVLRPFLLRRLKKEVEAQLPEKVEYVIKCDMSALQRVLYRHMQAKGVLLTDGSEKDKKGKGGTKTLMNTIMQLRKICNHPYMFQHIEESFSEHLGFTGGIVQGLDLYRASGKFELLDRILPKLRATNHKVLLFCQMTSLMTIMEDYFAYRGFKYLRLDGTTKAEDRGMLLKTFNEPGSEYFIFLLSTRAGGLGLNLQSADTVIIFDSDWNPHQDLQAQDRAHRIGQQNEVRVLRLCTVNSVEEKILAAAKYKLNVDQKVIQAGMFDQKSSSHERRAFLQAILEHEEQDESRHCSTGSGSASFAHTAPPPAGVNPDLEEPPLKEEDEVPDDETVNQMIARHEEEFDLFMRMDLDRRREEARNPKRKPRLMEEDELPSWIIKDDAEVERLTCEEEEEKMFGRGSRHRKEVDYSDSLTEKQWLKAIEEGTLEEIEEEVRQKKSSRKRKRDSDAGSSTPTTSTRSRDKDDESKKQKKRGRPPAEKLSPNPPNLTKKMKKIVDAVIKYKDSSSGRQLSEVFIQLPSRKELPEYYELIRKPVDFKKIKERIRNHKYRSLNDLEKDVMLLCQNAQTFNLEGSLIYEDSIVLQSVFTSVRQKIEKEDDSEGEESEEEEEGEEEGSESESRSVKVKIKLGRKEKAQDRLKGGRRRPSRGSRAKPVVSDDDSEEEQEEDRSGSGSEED
T1 sequence (P51531 whole entry): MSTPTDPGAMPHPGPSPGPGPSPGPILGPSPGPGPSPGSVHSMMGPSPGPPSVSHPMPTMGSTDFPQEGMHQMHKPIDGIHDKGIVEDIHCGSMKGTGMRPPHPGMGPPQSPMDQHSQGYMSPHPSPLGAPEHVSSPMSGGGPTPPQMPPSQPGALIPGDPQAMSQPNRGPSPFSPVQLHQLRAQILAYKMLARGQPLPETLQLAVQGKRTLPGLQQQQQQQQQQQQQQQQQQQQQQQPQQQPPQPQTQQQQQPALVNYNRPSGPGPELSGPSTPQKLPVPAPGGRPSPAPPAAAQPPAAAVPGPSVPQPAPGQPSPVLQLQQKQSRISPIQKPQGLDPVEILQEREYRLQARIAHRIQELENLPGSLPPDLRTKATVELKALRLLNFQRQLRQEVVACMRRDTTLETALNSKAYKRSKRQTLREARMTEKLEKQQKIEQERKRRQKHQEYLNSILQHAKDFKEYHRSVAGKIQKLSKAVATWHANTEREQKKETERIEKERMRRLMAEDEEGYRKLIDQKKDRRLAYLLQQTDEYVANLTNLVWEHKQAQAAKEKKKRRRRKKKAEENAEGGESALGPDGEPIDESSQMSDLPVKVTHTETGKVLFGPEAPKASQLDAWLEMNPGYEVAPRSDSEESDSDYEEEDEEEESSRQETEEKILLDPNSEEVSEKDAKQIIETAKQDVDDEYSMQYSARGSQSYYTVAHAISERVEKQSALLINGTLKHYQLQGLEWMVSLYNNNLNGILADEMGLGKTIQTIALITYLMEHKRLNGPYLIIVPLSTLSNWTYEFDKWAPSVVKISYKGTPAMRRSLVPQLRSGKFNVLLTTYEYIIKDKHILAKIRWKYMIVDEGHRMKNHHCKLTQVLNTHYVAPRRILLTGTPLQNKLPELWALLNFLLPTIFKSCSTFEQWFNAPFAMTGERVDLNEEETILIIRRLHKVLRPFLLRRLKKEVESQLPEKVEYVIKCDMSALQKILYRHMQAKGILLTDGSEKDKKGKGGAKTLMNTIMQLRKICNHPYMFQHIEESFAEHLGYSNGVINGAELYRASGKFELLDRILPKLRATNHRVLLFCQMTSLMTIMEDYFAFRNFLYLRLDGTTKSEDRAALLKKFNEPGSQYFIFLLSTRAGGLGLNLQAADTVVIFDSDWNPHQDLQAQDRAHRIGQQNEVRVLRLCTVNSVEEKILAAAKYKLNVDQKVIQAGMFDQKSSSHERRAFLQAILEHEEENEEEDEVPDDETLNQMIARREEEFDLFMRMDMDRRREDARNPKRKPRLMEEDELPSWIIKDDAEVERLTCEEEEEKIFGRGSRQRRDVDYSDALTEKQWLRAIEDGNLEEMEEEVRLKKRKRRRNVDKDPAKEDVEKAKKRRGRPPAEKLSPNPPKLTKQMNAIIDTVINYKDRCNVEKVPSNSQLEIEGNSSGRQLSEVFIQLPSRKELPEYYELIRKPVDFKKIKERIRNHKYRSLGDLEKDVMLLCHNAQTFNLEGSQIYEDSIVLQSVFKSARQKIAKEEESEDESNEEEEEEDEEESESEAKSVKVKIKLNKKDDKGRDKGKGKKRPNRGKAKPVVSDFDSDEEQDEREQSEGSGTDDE

In the case of `Nc1nnc(-c2ccccc2O)cc1N1CC2CCC(C1)N2c1nc(C#CCn2ccnc2)ncc1F` [Compound P-224, o-[6-amino-5-(8-{5-fluoro-2-[3-(1-imidazolyl)-1-propynyl]-4-pyrimidinyl}-3,8-diazabicyclo[3.2.1]oct-3-yl)-3-pyridazinyl]phenol], the DC50 in assay [1] and in assay [2] was 50 to 500 nM each time. The “SMARCA2 % Degradation @ 1 μM” value in assay [1] (@ 1 μM) is “+++ (+++=>70%)”. In assay [2] (@ 1 μM), the inhibition (commonly the percentage by which the read-out fell short of the control) at 1 µM is over 70%.
Take `COC1CCN(CC#Cc2nccc(N3CCCN(c4cc(-c5ccccc5O)nnc4N)CC3)n2)CC1` [Compound P-378, 0-[6-amino-5-(4-{2-[3-(4-methoxy-1-piperidyl)-1-propynyl]-4-pyrimidinyl}-1,4-diazepan-1-yl)-3-pyridazinyl]phenol]: the DC50 in assay [1] and in assay [2] was 50 to 500 nM each time. Further, the “SMARCA2 % Degradation @ 1 μM” value in assay [1] (@ 1 μM) is “+++ (+++=>70%)”. The same compound showed an inhibition at 1 µM in assay [2] (@ 1 μM) of 30 to 70%.
With `CC1(C)COCCN1CC#Cc1nccc(N2CCCN(c3cc(-c4ccccc4O)nnc3N)CC2)n1` [Compound P-317, 0-[6-amino-5-(4-{2-[3-(3,3-dimethyl-4-morpholinyl)-1-propynyl]-4-pyrimidinyl}-1,4-diazepan-1-yl)-3-pyridazinyl]phenol], the figures for the DC50 in assay [1] and in assay [2] were 50 to 500 nM and 500 to 5000 nM, respectively. The “SMARCA2 % Degradation @ 1 μM” value in assay [1] (@ 1 μM) is on record as “++ (++=30-70%)”. Further, the inhibition at 1 µM in assay [2] (@ 1 μM) is under 30%.
`CC(C)(C)OC(=O)NCC#Cc1cccc(N2CCCN(c3cc(-c4ccccc4O)nnc3N)CC2)n1` [Compound P-432, 3-(6-{4-[3-amino-6-(o-hydroxyphenyl)-4-pyridaziny1]-1,4-diazepan-1-yl}-2-pyridyl)-2-propynyl 2-methyl-2-propanecarbamate]: the 50% degradation concentration (DC50) (usually the concentration giving 50% degradation) in assay [1] was 500 to 5000 nM; in assay [2] it was over 5000 nM.
In the case of `C[C@@H]1CCN(c2cc(-c3ccccc3O)nnc2N)CCN1c1ccnc(C#CC2CCCCN2C)n1` (stereo partly drawn) [Compound P-231, o-{5-[(R)-5-methyl-4-{2-[2-(1-methyl-2-piperidyl)ethynyl]-4-pyrimidinyl}-1,4-diazepan-1-yl]-6-amino-3-pyridaziny1} phenol], the DC50 in assay [1] and in assay [2] was under 50 nM each time. For the same compound, in assay [1] (@ 1 μM), the “SMARCA2 % Degradation @ 1 μM” value is “++ (++=30-70%)”. For the same compound, the inhibition at 1 µM in assay [2] (@ 1 μM) was in the range of 30 to 70%.
On to `Nc1nnc(-c2ccccc2O)cc1N1C2CCC1CN(c1ccnc(C#CCn3ccnc3)n1)C2` [Compound P-284, 0-[6-amino-5-(3-{2-[3-(1-imidazolyl)-1-propynyl]-4-pyrimidinyl}-3,8-diazabicyclo[3.2.1]oct-8-yl)-3-pyridazinyl]phenol], for which the DC50 in assay [1] lay in the range of 50 to 500 nM; in assay [2], 500 to 5000 nM. Further, the “SMARCA2 % Degradation @ 1 μM” value in assay [1] (@ 1 μM) is on record as “++ (++=30-70%)”. Also, the inhibition at 1 µM in assay [2] (@ 1 μM) is under 30%.
For `C[C@@H]1CCN(c2cc(-c3ccccc3O)nnc2N)CCN1c1ccnc(C#CCn2cccn2)n1` [Compound P-332, 0-{5-[(R)-5-methyl-4-{2-[3-(1-pyrazolyl)-1-propynyl]-4-pyrimidinyl}-1,4-diazepan-1-y1]-6-amino-3-pyridazinyl}phenol], in that order: under 50 nM, 50 to 500 nM, “++ (++=30-70%)” and under 30%.
Turning to `C/C=C/c1nccc(N2CCCN(c3cc(-c4ccccc4O)nnc3N)CC2)n1` [Compound P-158, o-(6-amino-5-{4-[2-(1-propenyl)-4-pyrimidinyl]-1,4-diazepan-1-yl}-3-pyridazinyl)phenol], the half-maximal degradation concentration (DC50) in assay [1] and in assay [2] was 50 to 500 nM in each case. Further, the “SMARCA2 % Degradation @ 1 μM” value in assay [1] (@ 1 μM) is “??”. In assay [2] (@ 1 μM), this compound displayed an inhibition at 1 µM of 30 to 70%.
Regarding `C[C@@H](O)C#Cc1nccc(N2CCCN(c3cc(-c4ccccc4O)nnc3N)CC2)n1` [Compound P-322, 0-[5-(4-{2-[(R)-3-hydroxy-1-butynyl]-4-pyrimidinyl}-1,4-diazepan-1-yl)-6-amino-3-pyridazinyl]phenol], the DC50 in assay [1] and in assay [2] was 50 to 500 nM throughout. For the same compound, in assay [1] (@ 1 μM), the “SMARCA2 % Degradation @ 1 μM” value is given as “++ (++=30-70%)”. In addition, in assay [2] (@ 1 μM), the inhibition at 1 µM lay within 30 to 70%.
Regarding `C[C@@H]1CCN(c2cc(-c3ccccc3O)nnc2N)CCN1c1nc(C#CCN2C(=O)CC[C@@H]2C)ncc1F` [Compound P-176, (S)-1-[3-(4-{(R)-4-[3-amino-6-(o-hydroxyphenyl)-4-pyridazinyl]-7-methyl-1,4-diazepan-1-yl}-5-fluoro-2-pyrimidinyl)-2-propynyl]-5-methyl-2-pyrrolidinone], the DC50 in assay [1] and in assay [2] was 50 to 500 nM in each case. Further, the “SMARCA2 % Degradation @ 1 μM” value in assay [1] (@ 1 μM) was “++ (++=30-70%)”. The compound also had an inhibition at 1 µM in assay [2] (@ 1 μM) of 30 to 70%.
For `Cc1c(C(=O)NCC#Cc2nc(N(C)C)cc(N3CCCN(c4cc(-c5ccccc5O)nnc4N)CC3)n2)nn(C)c1C` [Compound P-140, N-(3-(4-(4-(3-amino-6-(2-hydroxyphenyl)pyridazin-4-yl)-1,4-diazepan-1-yl)-6-(dimethylamino)pyrimidin-2-yl)prop-2-yn-1-yl)-1,4,5-trimethyl-1H-pyrazole-3-carboxamide], the DC50 in assay [1] and in assay [2] was 500 to 5000 nM in each case. Also, in assay [1] (@ 1 μM), the “SMARCA2 % Degradation @ 1 μM” value is “++ (++=30-70%)”. The inhibition at 1 µM in assay [2] (@ 1 μM) was in the range of 30 to 70%.
Take `Nc1nnc(-c2ccccc2O)cc1N1CCCN(c2ccnc(C#CCN3CCCCC3)n2)CC1` [Compound P-373, 0-(6-amino-5-{4-[2-(3-piperidino-1-propynyl)-4-pyrimidinyl]-1,4-diazepan-1-yl}-3-pyridazinyl)phenol]: the DC50 in assay [1] and in assay [2] was 50 to 500 nM throughout. For the same compound, the “SMARCA2 % Degradation @ 1 μM” value in assay [1] (@ 1 μM) is recorded as “+++ (+++=>70%)”. This compound also showed an inhibition at 1 µM in assay [2] (@ 1 μM) of 30 to 70%.
For `C[C@@H]1CCN(c2cc(-c3ccccc3O)nnc2N)CCN1c1ccnc(C#CCN2CCOCC2)c1` [Compound P-426, 0-(5-{(R)-5-methyl-4-[2-(3-morpholino-1-propynyl)-4-pyridyl]-1,4-diazepan-1-yl}-6-amino-3-pyridazinyl)phenol], the DC50 in assay [1] and in assay [2] was 50 to 500 nM each time. In assay [1] (1 μM), the “SMARCA2 % Degradation @ 1 μM” value is “++ (++=30-70%)”. The same compound showed an inhibition at 1 µM in assay [2] (1 μM) of 30 to 70%.
Regarding `Cn1cc(C#Cc2nccc(N3CCCN(c4cc(-c5ccccc5O)nnc4N)CC3)n2)cn1` [Compound P-346, 0-[6-amino-5-(4-{2-[2-(1-methyl-4-pyrazolyl)ethynyl]-4-pyrimidinyl}-1,4-diazepan-1-yl)-3-pyridazinyl]phenol], the DC50 in assay [1] and in assay [2] was 500 to 5000 nM in each case. Also, the “SMARCA2 % Degradation @ 1 μM” value in assay [1] (@ 1 μM) is on record as “++ (++=30-70%)”. The same compound showed an inhibition at 1 µM in assay [2] (@ 1 μM) of under 30%.
For the compound `CC(C)(C)OC(=O)NCC#Cc1nccc(N2C3CCC2CN(c2cc(-c4ccccc4O)nnc2N)CC3)n1` (stereo not shown) [Compound P-303, 4-(9-{2-[3-(tert-butoxycarbonylamino)-1-propynyl]-4-pyrimidinyl}-3,9-diazabicyclo[4.2.1]non-3-yl)-6-(o-hydroxyphenyl)-3-pyridazinamine], the DC50 in assay [1] and in assay [2] was under 50 nM in each case. The “SMARCA2 % Degradation @ 1 μM” value in assay [1] (@ 1 μM) is reported as “++ (++=30-70%)”. The compound further yielded an inhibition at 1 µM in assay [2] (@ 1 μM) of 30 to 70%.
Take `CC(C)(C)OC(=O)NCC#Cc1nccc(NC2CN(c3cc(-c4ccccc4O)nnc3N)C2)n1` [Compound P-307, 4-(3-{2-[3-(tert-butoxycarbonylamino)-1-propynyl]-4-pyrimidinylamino}-1-azetidinyl)-6-(o-hydroxyphenyl)-3-pyridazinamine]: the DC50 in assay [1] and in assay [2] was 50 to 500 nM throughout. Also, the “SMARCA2 % Degradation @ 1 μM” value in assay [1] (@ 1 μM) is “++ (++=30-70%)”. In assay [2] (@ 1 μM), this compound showed an inhibition at 1 µM of 30 to 70%.
As for `Nc1nnc(-c2ccccc2O)cc1N1CC2CCC(C1)N2c1ccnc(C#CCn2ccnc2)n1` [Compound P-290], the DC50 in assay [1] and in assay [2] was 50 to 500 nM throughout. Further, the “SMARCA2 % Degradation @ 1 μM” value in assay [1] (@ 1 μM) is listed as “++ (++=30-70%)”. Besides, the inhibition at 1 µM in assay [2] (@ 1 μM) was under 30%.
`COCc1cc(N2CCCN(c3cc(-c4ccccc4O)nnc3N)CC2)nc(C#CCNC(=O)c2cc3ncccn3n2)n1` [Compound P-127, N-(3-(4-(4-(3-amino-6-(2-hydroxyphenyl)pyridazin-4-yl)-1,4-diazcpan-1-yl)-6-(methoxymethyl)pyrimidin-2-yl)prop-2-yn-1-yl)pyrazolo[1,5-a]pyrimidine-2-carboxamide]: the DC50 in assay [1] and in assay [2] was 50 to 500 nM each time. In assay [1] (@ 1 μM), the “SMARCA2 % Degradation @ 1 μM” value is on record as “++ (++=30-70%)”. This compound also had an inhibition at 1 µM in assay [2] (@ 1 μM) of over 70%.
As for `Nc1nnc(-c2ccccc2O)cc1N1CC2CCC(C1)N2c1ccnc(C#CCNC(=O)c2cc3ncccn3n2)n1` [Compound P-119, N-(3-(4-(3-(3-amino-6-(2-hydroxyphenyl)pyridazin-4-yl)-3,8-diazabicyclo[3.2.1]octan-8-yl)pyrimidin-2-yl)prop-2-yn-1-yl)pyrazolo[1,5-a]pyrimidine-2-carboxamide], the DC50 is over 5000 nM in assay [1] and 500 to 5000 nM in assay [2]. In addition, the “SMARCA2 % Degradation @ 1 μM” value in assay [1] (@ 1 μM) is recorded as “+ (+=<30%)”. In assay [2] (@ 1 μM), the inhibition at 1 µM is under 30%.
For `NCC#Cc1nccc(N2CCC3(CCCN(c4cc(-c5ccccc5O)nnc4N)C3)CC2)n1` [Compound P-89, 2-(6-amino-5-(9-(2-(3-aminoprop-1-yn-1-yl)pyrimidin-4-yl)-2,9-diazaspiro[5.5]undecan-2-yl)pyridazin-3-yl)phenol], in that order: 500 to 5000 nM, 500 to 5000 nM, “+ (+=<30%)” and under 30%.
`C[C@@H]1CCN(c2cc(-c3ccccc3O)nnc2N)CCN1c1ccnc(C#CCN2CCC(C#N)C2)n1` (stereo partly shown) [Compound P-245]: the half-maximal degradation concentration (DC50) in assay [1] and in assay [2] was 50 to 500 nM throughout. The “SMARCA2 % Degradation @ 1 μM” value in assay [1] (@ 1 μM) is given as “+++ (+++=>70%)”. In assay [2] (@ 1 μM), this compound showed an inhibition at 1 µM of 30 to 70%.

Source of the values: patent publication US20260265238A1, “COMPOUNDS AND PHARMACEUTICAL COMPOSITIONS THAT DEGRADE SWI/SNF-RELATED MATRIX-ASSOCIATED ACTIN-DEPENDENT REGULATOR OF CHROMATIN SUBFAMILY A” (Plexium, Inc., priority 2023, published 2026).
